Experiment [1] relates to NMDAR. Put plainly: Ca2+ imaging of hippocampal brain slices, NMDA+glycine application, ob/ob mice. As to conditions: ob/ob mice, PER administration; p<0.05.
For experiment [2], the system named is HFD-fed mice. Put plainly: MRI volumetric analysis of mouse hippocampus. The format is in vivo. As to conditions: HFD-fed mice n=8 treated with PER; left CA1 and DG, right CA1, CA3 and DG. An excerpt: Anatomical brain images of 8 ex vivo mice with CD, HFD, PER treatment were acquired using a Bruker BioSpec 117/11 11.75 Tesla MRI scanner (Bruker BioSpin GmbH, Ettlingen, Germany). MPRAGE (three-dimensional (3D)-prepared rapid gradient-echo) sequences were acquired as high resolution 100 μm iso-voxel images for voxel-based morphometry (matrix size: 280×220×220; field of view: 28×22×22 mm, repetition time: 2000 ms, echo time: 1.78 ms, flip angle: 12 degrees, inversion time: 800 ms, echo train length: 13, average number of times: 2).
A region of interest was drawn in the acquired data image using a rapid acquisition protocol by relaxation enhancement (RARE) sequence (matrix size: 280×220×220, field of view: 28×22×22 mm; repeat time: 1500 ms; echo time: 25 ms; flip angle: 180°). The MPRAGE image and the RARE image were simultaneously acquired by one single scan.
MRI data acquisition of ex vivo mice was acquired by simultaneously placing the head parts of four mice fixed with PBS into an MRI coil. Brains of four mice were confirmed using raw MRI data. […]
The volume of subfields of the hippocampus (CA1, CA2, CA3, DG, EC) was calculated using the ROI file (31, 33, 51, 52). […]

The test system of experiment [3] is ob/ob mice. As to the kind of experiment: Immunohistochemical analysis (MAP2, GluA1, GluA2, DCX), ob/ob mice. It counts as in vivo, mouse. As to conditions: ob/ob mice with PER. An excerpt: Mouse brains were perfusion-fixed with 4% paraformaldehyde, embedded in paraffin, and cut into 4 micrometer thick sections to be used for immunohistochemical analysis of monoclonal antibodies against DCX (E-6 monoclonal, 1:50, Santa Cruz Biotechnology Inc, Dallas, USA), MAP2ab (AP-20 monoclonal, 1:100, SIGMA-ALDRICH, St. Louis, USA), GluA1 (AB1540 polyclonal, 1:100, EMD Millipore Corp., Burlington, USA), and GluA2 (AB 1768-1 polyclonal, 1:5, EMD Millipore Corp., Burlington, USA).
The immunostained region in each of the expression regions of MAP2, GluA1, and GluA2 was acquired using a ZVI format AxioVision (Carl Zeiss, Germany) microscope (objective lens 20×). Generation of data image processing with image segmentation was performed using machine learning with ZEN Intelliesis software. 1000 or more cells were examined in each group. One-way variance analysis was used for testing variance among the three groups excluding data of 3SD or higher. Then, the following number of samples was used.
Similar to the HFD mouse model, ob/ob mice had reduced dendritic arbors integrity as determined by MAP2 staining (FIG. 12). […] In addition, the maturation of the protrusions of DCX-positive cells progressed by treatment with PER for 12 weeks (FIG. 14).

Experiment [4] concerns CP-AMPAR. Put plainly: Ca2+ imaging of hippocampal brain slices, AMPA+CTZ application, ob/ob mice. The format is cell-based, mouse.
The subject of experiment [5] is HFD mice. As to the kind of experiment: Golgi staining of hippocampus, HFD mice. The format is in vivo, mouse. As to conditions: HFD mice with PER. An excerpt: Coronal sections of mouse brains from Bregma −0.94 mm to Bregma −4.04 mm (5 mm wide, including the entire hippocampus from dorsal to ventral, medial to lateral) were fixed with 4% paraformaldehyde for 2 days, and then stained with the Golgi Cox staining system (FD Rapid GolgiStain™ Kit, MD 21041, USA). The impregnated tissues were cut into 100 μm sections and counterstained with crystal violet, and the total number of 15 μm spines on the apical dendrites of CA1 and DG and the percentage of morphologic spines (thin, stubby, mushroom) were examined using an Axio Observer Z1 (Carl Zeiss, Germany). Another set of paraformaldehyde-fixed 5 mm wide coronal sections of the brain, including the entire hippocampus, were processed using the passive CLARITY technique (PACT) (62) and examined through Lightsheet Z.1 (Carl Zeiss, Germany) using a 10× clear objective lens, and 3D images of Thy1-YFPH transgenic mice (the Jackson Laboratory, stock number: 003709, strain name: B6.Cg-Tg.(Thy1-YFP)16Jrs/J) (63, 64), HFD-fed mice, and whole hippocampus of the HFD-fed mice with PER treatment. were acquired respectively. Maximum intensity projection images were acquired along the Z dimension, time dimension, and channel dimension to create an output image with the pixel containing the maximum value for all images in the stack at a particular pixel position. […]

The nature of experiment [6]: Appearance and body weight of ob/ob mice. The format is in vivo, mouse. As to conditions: ob/ob mice fed perampanel-containing diet 5 mg/kg body weight from 8 to 12 weeks of age. How it is done: ob/ob mice and their littermates with wild-type traits were obtained as the offspring of ob+/− mice. These mice were fed freely and some of the ob/ob mice were fed perampanel-containing diet at 5 mg/kg body weight from 8 to 12 weeks of age. The appearance and body weight of these mice were compared at 12 weeks of age.

In the case of `N#Cc1ccccc1-c1cc(-c2ccccn2)cn(-c2ccccc2)c1=O` [PER, 3-(2-cyanophenyl)-5-(2-pyridyl)-1-phenyl-1,2-dihydropyridine-2-one], the “NMDAR function in all hippocampal subregions” value in experiment [1] is recorded as “restoration”. For the same compound, the “hippocampal volume (printed brain weight) by volumetric analysis” value in experiment [2] is “significantly restored”. In experiment [3], the “GluA1 expression in CA1 (immunoreactive regions)” value is given as “restored” and the “ratio of GluA2/GluA1 (immunoreactive regions)” value is “restored”. In experiment [4] (ob/ob mice slices, 100 μM, p<0.05 (FIG. 10-1A)), the “inhibitory effect on CP-AMPAR in EC, CA1, CA2, CA3, DG” value is on record as “significant inhibitory effect”. In experiment [4] (ob/ob mice, PER administration, p<0.05), the “Ca2+ permeability via CP-AMPAR in all hippocampal subregions” value is listed as “significant inactivation”. Moreover, the “spine maturity in DG” value in experiment [5] is “immature spines became mature”. Also, the “overweight / appearance at 12 weeks of age” value in experiment [6] is reported as “overweight was prevented”.
